Like-named read-outs stand apart in the source and are kept apart here.
What was measured:
[1] = Pharmacokinetic assessment of X842 in rats (IV, single oral, repeated oral); type: in vivo, Sprague-Dawley rats; conditions: for Cmax / AUC(0-t) / half-life: Sprague-Dawley, rat, plasma; for AUC(0-t): read-out: AUC(0–24h)
Description: Male and female Sprague-Dawley rats weighing approximately 150 g were housed individually with a 12-h light/dark cycle. Food and water were provided ad libitum, except during overnight fasting (10–16 h) prior to oral drug administration, as described previously ([Kotegawa et al., 1998]; [Kotegawa et al., 2002]). To investigate the absorption kinetics of X842 (prodrug) and linaprazan (metabolite, parent drug) in rats after oral and intravenous administration of X842, X842 were dissolved in 5% Solutol HS15/45% ethanol/10% PEG400/40% saline, and methane sulfonic acid was used to adjust to pH 3, yielding solutions with concentrations of 0.6 mg/mL, 2.4 mg/mL, and 9.6 mg/mL for oral administration. For intravenous (IV) injection, a drug solution (0.6 mg/mL) was prepared and filtered through a 0.22-μm filter. Blood samples were collected via the jugular vein of conscious rats (without intubation, narcotics, or antibiotics) prior to dosing and at 0.083, 0.25, 0.5, 1, 2, 4, 6, 8, and 24 h after dosing. Blood samples were placed into tubes containing sodium heparin and centrifuged at 3,500 rpm for 10 min at 4 °C. Following centrifugation, the plasma was transferred to clean tubes and stored at −80 °C until further analysis. All animals were euthanized by carbon dioxide (CO2) inhalation after the final blood sample collection.
(§1) Pharmacokinetic assessments were conducted by Shanghai Medicilon Inc. Using C18 solid-phase extraction (Shimadzu UFLC-20A, ACE 3, C18, 3.0 µm, 150 × 4.6 mm; Shimadzu, Japan) with the following conditions: mobile phase A: 1 M ammonium acetate in water, mobile phase B: 100% acetonitrile; gradient 0–5 min: 100% A, 5–30 min: 85% A, 35–63 min: 75% A, 63–65 min: 55% A, 65–70 min: 0% A, 72–87 min: 100% A; flow rate 0.7 mL/min; column temperature 30 °C ([Weidof and Covey, 1992]). […] Bioavailability was calculated as F (%) = (Doseiv × AUCpo(0–24h)) ÷ (Dosepo × AUCiv (0–24h)) × 100%, where “po” represents oral administration and “iv” represents intravenous administration.

[2] = Pharmacokinetic assessment of X842 in dogs (IV, single oral, repeated oral); type: in vivo; conditions: beagle, dog, plasma; for half-life at 1 day: read-out: t1/2 Day 1 (converted); for half-life at 7 day: read-out: t1/2 Day 7 (converted)
Description: as §1
Male and female Beagle dogs weighing around 9 kg were arbitrarily selected for testing. Food and water were provided ad libitum, except during overnight fasting (15–16 h) prior to oral drug administration ([Adebowale et al., 2002]). X842 were dissolved in the PEG400/ethanol/Solutol/water mixture (40:10:5:45% v/v) and methane sulfonic acid was used to adjust to pH 3, yielding solutions with concentrations of 0.3 mg/mL, 1.2 mg/mL, and 4.8 mg/mL for oral administration. There were four rounds of drug administration. One week was required between the rounds of testing according to the conditions for of animal welfare maintenance. For IV injection, a drug solution with a concentration of 0.3 mg/mL was prepared and filtered through a 0.22-μm filter. Blood samples were collected via the jugular vein using the same procedures as were used for the rat experiments. Following centrifugation, the plasma was transferred to clean tubes and stored at −80 °C until further analysis. All animals were euthanized by phenobarbital injection after the final blood sample collection. Pharmacokinetic assessments were conducted as described in 2.2.1.

[3] = female, iv, 0.6 mg/kg, female rats, intravenous X842, plasma analyte as labelled
[4] = female, po, 0.6 mg/kg, female rats, single oral X842 0.6 mg/kg, analyte as labelled
[5] = female, po, 2.4 mg/kg, female rats, single oral X842 2.4 mg/kg, analyte as labelled
[6] = female, po, 2.4 mg/kg, female rats, single oral X842, 2.4 mg/kg (third dose group)
[7] = male, iv, 0.6 mg/kg, male rats, intravenous X842, plasma analyte as labelled
[8] = male, po, 0.6 mg/kg, male rats, single oral X842 0.6 mg/kg, analyte as labelled
[9] = male, po, 2.4 mg/kg, male rats, single oral X842 2.4 mg/kg, analyte as labelled
[10] = male, po, 2.4 mg/kg, male rats, single oral X842, 2.4 mg/kg (third dose group)
[11] = 1.2 mg/kg, female dogs, repeat oral X842, Day 1, analyte as labelled
[12] = 1.2 mg/kg, female dogs, repeat oral X842, Day 7, analyte as labelled

Structure (SMILES): Cc1cccc(C)c1CNc1cc(C(=O)NCCOC(=O)CCCC(=O)O)cn2c(C)c(C)nc12 [X842, linaprazan glurate]
- Cmax [1, 3]: 606 ± 284 ng/mL
- AUC(0-t) [1, 3]: 218 ± 101 ng·h/mL
- half-life ([1]; female, iv, 0.6 mg/kg, female rats, intravenous X842, plasma analyte as labelled, read-out: t1/2 (converted)): 0.4 ± 0.03 h
- Cmax [1, 4]: 8.7 ± 4.9 ng/mL
- AUC(0-t) [1, 4]: 13.8 ± 13.1 ng·h/mL
- half-life ([1]; female, po, 0.6 mg/kg, female rats, single oral X842 0.6 mg/kg, analyte as labelled, read-out: t1/2 (converted)): 2.8 h
- Cmax [1, 5]: 42.6 ± 17.4 ng/mL
- AUC(0-t) [1, 5]: 85.6 ± 45.6 ng·h/mL
- half-life ([1]; female, po, 2.4 mg/kg, female rats, single oral X842 2.4 mg/kg, analyte as labelled, read-out: t1/2 (converted)): 4.1 ± 1.2 h
- Cmax [1, 6]: 164 ± 124 ng/mL
- AUC(0-t) [1, 6]: 310 ± 256 ng·h/mL
- half-life ([1]; female, po, 2.4 mg/kg, female rats, single oral X842, 2.4 mg/kg (third dose group), read-out: t1/2 (converted)): 2.1 ± 0.3 h
- half-life ([1]; female, po, female rats, single-dose oral administration, read-out: t1/2 (range over doses)): 2.1 to 4.1 h
- Cmax [1, 7]: 448 ± 120 ng/mL
- half-life ([1]; male, iv, 0.6 mg/kg, male rats, intravenous X842, plasma analyte as labelled (prodrug X842 / parent linaprazan), read-out: t1/2 (converted)): 0.4 ± 0.1 h
- AUC(0-t) [1, 7]: 146 ± 38 ng·h/mL
- Cmax [1, 8]: 2.5 ± 1.8 ng/mL
- AUC(0-t) [1, 8]: 2.5 ± 2.6 ng·h/mL
- Cmax [1, 9]: 14.6 ± 10.1 ng/mL
- AUC(0-t) [1, 9]: 18.3 ± 10 ng·h/mL
- half-life ([1]; male, po, 2.4 mg/kg, male rats, single oral X842 2.4 mg/kg, analyte as labelled, read-out: t1/2 (converted)): 2.6 h
- Cmax [1, 10]: 49.7 ± 35.4 ng/mL
- AUC(0-t) [1, 10]: 11.6 ± 77.5 ng·h/mL
- half-life ([1]; male, po, 2.4 mg/kg, male rats, single oral X842, 2.4 mg/kg (third dose group), read-out: t1/2 (converted)): 2.01 ± 0.18 h
- half-life ([1]; male, po, male rats, single-dose oral administration, read-out: t1/2 (range over doses)): 2 to 2.7 h
- Plasma concentration after IV administration ([1]; within 0.5 h after IV administration, male and female rats): barely detectable
- Cmax at 1 day [2, 11]: 138 ± 7.6 ng/mL
- half-life at 1 day [2, 11]: 1.1 ± 0.2 h
- Cmax at 7 day [2, 12]: 47.2 ± 10.6 ng/mL
- half-life at 7 day [2, 12]: 2 ± 1.2 h
- half-life at 1 day ([2]; 1.2 mg/kg, male dogs, 7 days of repeat oral X842, Day 1, analyte as labelled): 2.01 ± 0.73 h
- half-life at 7 day ([2]; 1.2 mg/kg, male dogs, 7 days of repeat oral X842, Day 7, analyte as labelled): 8.6 ± 10.8 h
- Cmax at 1 day ([2]; 1.2 mg/kg, male dogs, repeat oral X842, Day 1, analyte as labelled): 26.3 ± 21.6 ng/mL
- Cmax at 7 day ([2]; 1.2 mg/kg, male dogs, repeat oral X842, Day 7, analyte as labelled): 15.6 ± 10.4 ng/mL
- Cmax ([2]; female dogs, intravenous X842 0.3 mg/kg, analyte as labelled): 694 ± 225 ng/mL
- half-life ([2]; female dogs, intravenous X842 0.3 mg/kg, analyte as labelled, read-out: t1/2 (converted)): 0.7 ± 0.1 h
- Cmax ([2]; female dogs, single oral X842 0.3 mg/kg, analyte as labelled): 6.1 ng/mL
- Cmax ([2]; female dogs, single oral X842 1.2 mg/kg, analyte as labelled): 37.5 ± 7.6 ng/mL
- half-life ([2]; female dogs, single oral X842 1.2 mg/kg, analyte as labelled, read-out: t1/2 (converted)): 1.2 ± 0.2 h
- Cmax ([2]; female dogs, single oral X842 4.8 mg/kg, analyte as labelled): 271 ng/mL
- half-life ([2]; female dogs, single oral X842 4.8 mg/kg, analyte as labelled, read-out: t1/2 (converted)): 2.7 ± 2.2 h
- half-life ([2]; female dogs, single oral dose, read-out: t1/2 (range over doses)): 2.1 to 3.2 h
- Cmax ([2]; male dogs, intravenous X842 0.3 mg/kg, analyte as labelled): 745 ± 157 ng/mL
- half-life ([2]; male dogs, intravenous X842 0.3 mg/kg, analyte as labelled, read-out: t1/2 (converted)): 0.5 ± 0.1 h
- Cmax ([2]; male dogs, single oral X842 0.3 mg/kg, analyte as labelled): 5.3 ± 4 ng/mL
- Cmax ([2]; male dogs, single oral X842 1.2 mg/kg, analyte as labelled): 26.3 ng/mL
- half-life ([2]; male dogs, single oral X842 1.2 mg/kg, analyte as labelled, read-out: t1/2 (converted)): 2 ± 0.7 h
- Cmax ([2]; male dogs, single oral X842 4.8 mg/kg, analyte as labelled): 355 ng/mL
- half-life ([2]; male dogs, single oral X842 4.8 mg/kg, analyte as labelled, read-out: t1/2 (converted)): 3.4 ± 2.2 h
- half-life ([2]; male dogs, single oral dose, read-out: t1/2 (range over doses)): 2 to 3.4 h
- half-life ([2]; both sexes, 0.3 mg/kg, dogs, IV administration, similar between the sexes, read-out: t1/2 (converted)): ~0.6 h
- AUC(0-t) ([2]; female, iv, 0.3 mg/kg, female dogs, intravenous X842 0.3 mg/kg, analyte as labelled, read-out: AUC(0-24h)): 343 ± 125 ng·h/mL
- AUC(0-t) ([2]; female, po, 0.3 mg/kg, female dogs, single oral X842 0.3 mg/kg, analyte as labelled, read-out: AUC(0-24h)): 5.1 ± 3.3 ng·h/mL
- AUC(0-t) ([2]; female, po, 1.2 mg/kg, female dogs, repeat oral X842, Day 1, analyte as labelled, read-out: AUC(0-24h) Day 1): 72.3 ± 18.3 ng·h/mL
- AUC(0-t) ([2]; female, po, 1.2 mg/kg, female dogs, repeat oral X842, Day 7, analyte as labelled, read-out: AUC(0-24h) Day 7): 69.4 ± 54.1 ng·h/mL
- AUC(0-t) ([2]; female, po, 1.2 mg/kg, female dogs, single oral X842 1.2 mg/kg, analyte as labelled, read-out: AUC(0-24h)): 72.3 ng·h/mL
- AUC(0-t) ([2]; female, po, 4.8 mg/kg, female dogs, single oral X842 4.8 mg/kg, analyte as labelled, read-out: AUC(0-24h)): 504 ng·h/mL
- AUC(0-t) ([2]; male, iv, 0.3 mg/kg, male dogs, intravenous X842 0.3 mg/kg, analyte as labelled, read-out: AUC(0-24h)): 361 ± 118 ng·h/mL
- AUC(0-t) ([2]; male, po, 0.3 mg/kg, male dogs, single oral X842 0.3 mg/kg, analyte as labelled, read-out: AUC(0-24h)): 5.2 ± 2.3 ng·h/mL
- AUC(0-t) ([2]; male, po, 1.2 mg/kg, male dogs, repeat oral X842, Day 1, analyte as labelled, read-out: AUC(0-24h) Day 1): 65.1 ± 51.2 ng·h/mL
- AUC(0-t) ([2]; male, po, 1.2 mg/kg, male dogs, repeat oral X842, Day 7, analyte as labelled, read-out: AUC(0-24h) Day 7): 35.4 ± 8.7 ng·h/mL
- AUC(0-t) ([2]; male, po, 1.2 mg/kg, male dogs, single oral X842 1.2 mg/kg, analyte as labelled, read-out: AUC(0-24h)): 65.1 ng·h/mL
- AUC(0-t) ([2]; male, po, 4.8 mg/kg, male dogs, single oral X842 4.8 mg/kg, analyte as labelled, read-out: AUC(0-24h)): 889 ng·h/mL
